In the case of `Cc1ccc(S(=O)(=O)N(CCN(CC(=O)Cl)S(=O)(=O)c2ccc(C)cc2)CCN(CC(=O)Cl)S(=O)(=O)c2ccc(C)cc2)cc1`, the melting point is reported as 136 to 137 °C.
In the case of `C=C1N(C)C(=O)OC12CCN(CCCN1c3ccccc3Sc3ccc(C(F)(F)F)cc31)CC2`, the melting point is reported as 116 to 118 °C.
For `COC(=O)c1cc(O)nc2ccccc12`, the melting point was 240 to 241 °C.
In the case of `CCOC(=O)c1c(N)nc(-c2ccc([N+](=O)[O-])cc2)c([N+](=O)[O-])c1C(=O)OCC`, the melting point is reported as 148 to 150 °C.
Work on `Cc1c(Sc2ccc(Cl)cc2)c2c(N3CCN(C(=O)OC(C)(C)C)CC3)cccc2n1CC(=O)O` yielded a melting point of 173 °C.
`CCNc1cc(O)c(C)cc1Cl` gave a melting point of 205 °C.
`CNC1=NS(=O)(=O)N=C1NCCSCc1csc(CN(C)C)n1` gave a melting point of 144 to 148 °C.
In the case of `CN1CCN(c2cc(N)ccc2F)CC1`, the melting point is reported as 155 to 156 °C.
Work on `CN(C)Cc1nc2n(n1)-c1cccnc1N(c1ccccc1)C2` yielded a melting point of 135 to 139 °C.
`c1ccc(Sc2c(CCc3nc4ccccc4o3)[nH]c3ccccc23)cc1` showed a melting point of 192 to 193 °C.
`COc1cc2c(cc1OCc1ccccc1)CCN(Cc1cc(OC)c(OC)c(OC)c1)C2=O` gave a melting point of 136 to 137 °C.
`CC(C)n1c(=O)cc(C(F)(F)F)[nH]c1=O` showed a melting point of 127 to 129 °C.
Work on `O=c1nc(-c2cccs2)sc2ccccc12` yielded a melting point of 158 °C.
`C#Cc1ccc(Nc2c(C(=O)c3nccn3C)ccc(F)c2F)c(F)c1` showed a melting point of 166 °C.
For `Oc1cc2ccccn2n1`, the melting point was 127 to 128 °C.
With `O=C(Cc1c(-c2ccccc2)c2cc3c(cc2oc1=O)CCC3)Nc1c(Cl)cncc1Cl` the melting point was 257 to 259 °C.
`O=c1c(-c2ccccc2)ccc2n1CCc1ccccc1-2` gave a melting point of 140 °C.
Compound `O=c1cc(-c2ccccc2)c2cc(C(c3ccccc3)n3ccnc3)ccc2[nH]1` (centres undefined) has a melting point of 253 °C.
In the case of `Cc1nc(N2CCN(C)CC2)nc(N)c1-c1cc(Cl)cc(Cl)c1Cl`, the melting point is reported as 156 to 159 °C.
`Nn1nc(-c2ccccc2)cc1OCCN1CCCC1` showed a melting point of 138 °C.
In the case of `CC(C)(C)c1ccc(CN2CCN(Cc3ccc(NS(C)(=O)=O)cc3)C2=O)cc1`, the melting point is reported as 166 to 168 °C.
With `CN1CCN(c2cccc3c2C[C@H](NC(=O)c2ccc(C(F)(F)F)cc2)CO3)CC1` the melting point was 212 to 214 °C.
For `CC(C)(CSc1ccc(Cl)cc1)C(Cn1ccnc1)=NO`, the melting point was 125 to 126 °C.
With `Clc1ccc(-c2nc(NCc3ccccc3)c3ccccc3n2)cn1` the melting point was 212 °C.
`c1ccc(C2NCCNCc3ccccc32)cc1` (centres undefined) gave a melting point of 125 °C.
Compound `COC(OC)/C(=C/c1ccc(Cl)cc1Cl)c1ccc(Cl)cc1` has a melting point of 87 to 90 °C.
Work on `CC(=O)O[C@H](CCc1ccc([N+](=O)[O-])cc1)C(=O)O` yielded a melting point of 108 to 109 °C.
`CCN(CC)CCOc1ccc(Nc2ncc3ccc(=O)n(C(C)C)c3n2)cc1` showed a melting point of 84 to 85 °C.
`Cc1c(C(=O)Nc2ccc(OCC(C)(C)C)c(C#N)c2)cnn1-c1ccc(F)cc1` showed a melting point of 126 to 127 °C.
For `CC1(C)COC(c2cc(-c3ccncc3)n(-c3ccc(F)cc3)n2)OC1`, the melting point was 150 to 151 °C.
Work on `CCc1n[nH]c(CC)c1CCOCCOc1ccc(OC)cc1Cl` yielded a melting point of 90 to 92 °C.
In the case of `CCC(CC)(COc1ccc2ncnn2n1)CS(N)(=O)=O`, the melting point is reported as 194 to 197 °C.
`O=C(O)c1ccc(-c2c3ccccc3nn2Cc2ccccc2)cc1` gave a melting point of 159 to 163 °C.
Work on `C=Cc1cnc(-c2ccccn2)nc1` yielded a melting point of 103 °C.
Compound `CCC(C(C)=CC(CNC(=O)c1cccnc1)=NO)[N+](=O)[O-]` (centres undefined) has a melting point of 105 to 108 °C.
With `COc1ccc(/C(=C/C=C/C(=O)O)C2CCCCC2)cc1` the melting point was 130 to 132 °C.
For `CC(=O)N1CCN=C1CC(c1ccccc1)c1ccccc1`, the melting point was 104 to 106 °C.
With `CCOc1c(Nc2ccc3[nH]cnc3c2)c(=O)c1=O` the melting point was 243 to 244 °C.
For `Cc1cccc(S(=O)(=O)OS(=O)(=O)c2cccc(C)c2C)c1C`, the melting point was 115 to 130 °C.
Work on `CCCc1nc(Cl)cc(NC)n1` yielded a melting point of 30 to 40 °C.
For `CC(C)[Si](OCCOc1cc(CO)ccc1Br)(C(C)C)C(C)C`, the melting point was 62.2 °C.
`CCOc1nn(-c2ccc(C(F)(F)F)cn2)cc1CCCOc1ccc(CCC(=O)O)c(OC(C)C)c1` showed a melting point of 104 to 105 °C.
Work on `CCOC(=O)CCc1ccc(C(=O)Cc2ccccc2)cc1` yielded a melting point of 50.5 to 52.5 °C.
In the case of `COC(=O)c1c(N)c(-c2ccc(I)cc2)nc2ccc(F)cc12`, the melting point is reported as 223 to 225 °C.
With `CC1CCC(NC(=O)NS(=O)(=O)c2ccc(CCNC(=O)N3C(=O)c4ccccc4C3C)cc2)CC1` (centres undefined) the melting point was 212 to 214 °C.
With `COC(=O)COc1c(Br)cc(-c2c3ccccc3c(Br)c3oc4ccccc4c23)cc1Br` the melting point was 188 to 189 °C.
For `CCOC(=O)NNC(=O)Cl`, the melting point was 77 to 80 °C.
`CCn1nc2c(N)nc3ccccc3c2c1CC(C)(C)C` gave a melting point of 240 °C.
`CCC(=O)Nc1c([N+](=O)[O-])cnn1-c1ncc(Cl)cc1Cl` showed a melting point of 53 to 56 °C.

— a melting point compilation (Tetko et al.; mined from patent text by program, amines drawn as free bases though some values may be those of a salt)
